Measurements published in US20150374784A1, “COMPOSITIONS AND METHODS FOR REDUCING GERM CELL DEATH” (Los Angeles Biomedical Research Institute at Harbor-UCLA …, priority 2014, published 2015).
Peptide text beside a SMILES is read from it.

Experiments:
B16 melanoma cells = type: cell-based
Text: Furthermore, the autophagy induction of humanin may be related to its apparent effects of enhancing longevity observed in other systems.

in vivo = conditions: male, C57BL/6J, mouse, sc, 10 mg/kg BW
Protocol: The objective of this study was to investigate whether HNG has protective effect on sperm output after multiple doses of CP in mice. Thirty adult male mice (C57BL/6J) were randomized into 4 groups: 1) 5 as control; 2) 5 received daily subcutaneously injection of HNG (10 mg/kg BW); 3) 10 were given 6 doses of CP (150 mg/kg BW) intraperitoneally at 5-day intervals; 4) 10 received both HNG and CP. All mice were killed at 28 days. Plasma HNG and IGF-1 levels were measured by ELISAs. The cauda epididymal sperm count was performed using a hemocytometer.

Leydig cells = experiment: Testosterone of cultured Leydig cells treated with ketoconazole; type: cell-based, rat; conditions: KTZ 10 mcg/ml, 4 hours, 34° C.
Protocol: Leydig cells were isolated based on a previously described procedure (Gao, et al., 1996; Klinefelter, et al., 1987; Salva, et al., 2001). Briefly, the testes were decapsulated, and then dissociated with collagenase, dispase, DNase and shaking for 15 min at 34° C. The seminiferous tubules were removed by filtration through 40 μm nylon mesh (BD Falcon, Franklin Lakes, N.J.). Leydig cells were then harvested after centrifugation and purified using a Percoll gradient (GE Healthcare, Uppsala, Sweden) and centrifugation (60 minutes at 20,000 g at 4° C.). Enriched Leydig cells were harvested at densities between 1.065 (red) and 1.075 (blue) g/cm^3 from the percoll gradient. These Leydig cells were washed by diluting the percoll and excluding residual germ cells and other cells using a BSA density gradient with centrifugation. The purity of the Leydig cells was >90%, as determined by histochemical staining for 3β-hydroxysteroid dehydrogenase. The cell viability, as assessed by trypan blue exclusion, was greater than 90%. […]
Testosterone concentrations in plasma, testes, and culture medium were measured by a previously described radioimmunoassay (Lue, et al., 2010) with a minimal detection limit of 0.1 ng/ml. […]

male germ cells = experiment: TMZ-induced male germ cell apoptosis in SCID mice (TUNEL, Apoptosis Index); type: in vivo, mouse; conditions: 24 hours after last injection; TMZ 50 mg/Kg BW/day X 5 days; HNG 5 mg/Kg BW/day
Protocol: Onco-infertility is a major concern of cancer survivors. In this study, it was investigated whether HNG will prevent chemotherapy (Temozolomide, TMZ, an alkylating agent used clinically to treat brain tumors) induced male germ cell apoptosis in SCID mice bearing subcutaneous implants of human medulloblastoma. DAOY human pediatric medulloblastoma cells ([…] cells/animal) were injected subcutaneously into the right flank of 7-week old male SCID mice. After 3 weeks to allow tumor growth, each group of mice (n=4 to 5/group) received one of the following treatments: 1) vehicle (control); 2) HNG intra-peritoneal (IP) injection (HNG, 5 mg/Kg BW/day, 3 days pretreatment+5 days treatment); 3) TMZ IP injection (TMZ, 50 mg/Kg BW/day X 5 days); 4) TMZ and HNG IP injections (TMZ+HNG). Mice were sacrificed 24 hours after the last injection, subcutaneous tumors were dissected and weighed (FIG. 26) and male germ cell apoptosis was assessed by TUNEL staining and quantified (Apoptosis Index, AI, number of apoptotic germ cell/Sertoli cell, FIG. 27). […] HNG ameliorated TMZ-induced germ cell apoptosis without affecting the chemotherapeutic effect on transplanted medulloblastoma tumor in an immunocompromised mouse model.

CC[C@H](C)[C@H](NC(=O)[C@H](CCC(=O)O)NC(=O)CNC(=O)[C@@H](NC(=O)[C@H](CC(C)C)NC(=O)[C@H](CC(C)C)NC(=O)[C@H](CC(C)C)NC(=O)[C@H](CC(C)C)NC(=O)[C@H](CS)NC(=O)[C@H](CO)NC(=O)[C@H](Cc1ccccc1)NC(=O)CNC(=O)[C@H](CCCNC(=N)N)NC(=O)[C@@H]1CCCN1C(=O)[C@H](C)NC(=O)[C@@H](N)CCSC)[C@@H](C)O)C(=O)N[C@@H](CC(=O)O)C(=O)N[C@@H](CC(C)C)C(=O)N1CCC[C@H]1C(=O)N[C@H](C(=O)N[C@@H](CCCCN)C(=O)N[C@@H](CCCNC(=N)N)C(=O)N[C@@H](CCCNC(=N)N)C(=O)N[C@@H](C)C(=O)O)C(C)C [HNG] (H-MAPRGFSCLLLLTGEIDLPVKRRA-OH; N-terminus and C-terminus assumed)
cytotoxicity of combined treatment versus doxorubicin treatment alone (B16 melanoma cells): additive effect on the cytotoxicity
level at 672 h (in vivo): 80.8 ± 7.8 ng/mL

CC(=O)N1CCN(c2ccc(OCC3COC(Cn4ccnc4)(c4ccc(Cl)cc4Cl)O3)cc2)CC1 (centres unmarked) [KTZ, ketoconazole, reference compound]
testosterone levels of cultured Leydig cells (Leydig cells): lowered the testosterone levels significantly

Cn1nnc2c(C(N)=O)ncn2c1=O [TMZ, Temozolomide]
Apoptosis Index (AI), apoptotic germ cell/Sertoli cell, early+late stages (male germ cells): 0.116±0.009
Apoptosis Index (AI), apoptotic germ cell/Sertoli cell, middle stages (male germ cells): 0.058±0.006
